The source made the active and inactive calls. The rule behind the calls is not given here.

The experiment has as its system Radical scavenging activity. As to the kind of experiment: Antioxidant activity assessed as DPPH radical scavenging activity by spectrophotometric assay. Format: functional. (Loss of DPPH colour is used to gauge radical scavenging.)
Consider `COc1ccc(Nc2c(C(C)C)ccc3c2C[C@@H]2[C@](C)(CCC[C@@]2(C)C(=O)O)C3)cc1`, for which the result was Active.
The result for `CC(C)c1c(Nc2ccccc2)cc2c(c1Nc1ccccc1)C[C@@H]1[C@](C)(CCC[C@@]1(C)C(=O)O)C2` reads “Active”.
The result for `COc1ccc(Nc2cc3c(c([N+](=O)[O-])c2C(C)C)C[C@@H]2[C@](C)(CCC[C@@]2(C)C(=O)O)C3)cc1` reads “Active”; that for `COc1ccccc1Nc1c(C(C)C)ccc2c1C[C@@H]1[C@](C)(CCC[C@@]1(C)C(=O)O)C2`, “Active”.
In the case of `CC(C)c1ccc2c(c1Nc1ccccc1)C[C@@H]1[C@](C)(CCC[C@@]1(C)C(=O)O)C2`, the outcome was Active.
Next, `COc1ccc(Nc2cc3c(c(Nc4ccc(OC)cc4)c2C(C)C)C[C@@H]2[C@](C)(CCC[C@@]2(C)C(=O)O)C3)cc1`: “Active”; `CC(C)c1c(Nc2ccccc2)cc2c(c1[N+](=O)[O-])C[C@@H]1[C@](C)(CCC[C@@]1(C)C(=O)O)C2`: “Active”.
The result for `CC(C)c1c(Nc2ccccc2)cc2c(c1N)C[C@@H]1[C@](C)(CCC[C@@]1(C)C(=O)O)C2` reads “Active”; that for `COc1ccccc1Nc1cc2c(c(N)c1C(C)C)C[C@@H]1[C@](C)(CCC[C@@]1(C)C(=O)O)C2`, “Active”.
Next, `COc1ccccc1Nc1cc2c(c(Nc3ccccc3OC)c1C(C)C)C[C@@H]1[C@](C)(CCC[C@@]1(C)C(=O)O)C2`: “Active”.
Regarding `COc1ccccc1Nc1cc2c(c([N+](=O)[O-])c1C(C)C)C[C@@H]1[C@](C)(CCC[C@@]1(C)C(=O)O)C2`, the result was Active.
The result for `COc1ccc(Nc2cc3c(cc2C(C)C)C[C@@H]2[C@](C)(CCC[C@@]2(C)C(=O)O)C3)cc1` reads “Active”; that for `COc1ccccc1Nc1cc2c(cc1C(C)C)C[C@@H]1[C@](C)(CCC[C@@]1(C)C(=O)O)C2`, “Active”.
`COc1ccc(Nc2cc3c(c(N)c2C(C)C)C[C@@H]2[C@](C)(CCC[C@@]2(C)C(=O)O)C3)cc1`: the outcome was Active.
Take `Cc1cc(C(C)(C)C)c(O)c(C(C)(C)C)c1`: the result was Active.
The result for `CC(C)c1cc2c(cc1Nc1ccccc1)C[C@@]1(C)CCC[C@@](C)(C(=O)O)[C@@H]1C2` reads “Active”.

Values taken from ChEMBL document CHEMBL1150862, “Synthetic derivatives of abietic acid with radical scavenging activity” (J Nat Prod, 2001).
